Source: EP0486595B1, “Use of a coleus extract for skin pigmentation” (LVMH RECHERCHE, priority 1989, dated 1991)

Key:
mélanocytes murins [1] = assay: Melanin formation (melanogenesis stimulation) in cultured melanocytes, optical density at 475 nm; format: cell-based; settings: for Mélanine >g pour 10⁶ mélanocytes / A: concentration 10 >g/ml; for A: relative to β-MSH 2.10⁻⁸ M
Description: (§1) Des mélanocytes murins sont cultivés sur un milieu approprié de manière classique.
Au jour J = 0, le produit à tester est introduit dans le milieu de culture. […]
(§2) On procède à la lecture de la densité optique sur un spectrophotomètre à 475 nm, ce qui permet d'évaluer la quantité de mélanine formée par comparaison à la densité optique d'une solution de mélanine de concentration connue.
(§3) On procède également au comptage des cellules, et on calcule le taux de mélanine formée par cellule, par rapport à une culture témoin, sans addition de produit à tester.
(§4) L'extrait Coleus 5B, selon l'exemple 5b est testé en comparaison avec de la forskoline seule, utilisée à concentration équivalente, et avec un témoin positif consistant en 10⁻⁸ mole de β-MSH. Ainsi, on introduit au jour J=0 dans le milieu de culture de la forskoline à la concentration de 0,1 >g/ml.
(§5) Dans une autre culture, on introduit l'extrait de Coleus à une concentration déterminée de façon que le taux en forskoline soit également d'environ 0,1 >g/ml.
(§6) L'activité A de la stimulation de la mélanogénèse par les produits selon l'invention est calculée par la formule suivante : [formula] dans laquelle les grandeurs q représentent les quantités de mélanine formée qp = culture recevant le produit à tester q₊ = culture recevant la βMSH qo = culture témoin ne recevant aucun produit.
(§7) Par ailleurs, on a testé dans des conditions analogues les extraits de Coleus 5A et 5C respectivement obtenus par extraction par un mélange éthanol-eau 80:20 et par le dichlorométhane. On notera toutefois qu'il a été pris comme témoin positif une culture recevant de la β-MSH à la concentration de 2.10⁻⁸M.
(§8) On opère comme à l'exemple 6. La combinaison IBMX plus extrait de Coleus est testée en comparaison avec l'IBMX et l'extrait de Coleus seul, de même qu'avec la β-MSH à la concentration de 2.10⁻⁸ M prise comme témoin positif.

mélanocytes murins [2] = assay: as above; format: cell-based; settings: for Activité A en % / A: 100 by definition; for Mélanine >g pour 10⁶ mélanocytes / A: β-MSH 2.10⁻⁸ M
Description: as §1
Au jour J = 0, le produit à tester est introduit dans le milieu de culture.
Au jour J = 5, on prélève les cellules que l'on isole par centrifugation et on récupère le culot cellulaire que l'on dissout dans de la soude 0,5 N.
as §2, §3, §4, §5, §6, §7, §8

Molecule: C=C[C@@]1(C)CC(=O)[C@]2(O)[C@@]3(C)[C@@H](O)CCC(C)(C)[C@@H]3[C@H](O)[C@H](OC(C)=O)[C@@]2(C)O1 [Forskoline, forskoline]
- Mélanine formée en >g pour 10⁶ cellules (mélanocytes murins [1]; J = 5, forskoline 0,1 >g/ml, extract dosed to a forskoline level of about 0,1 >g/ml): 92 ± 3 >g pour 10⁶ cellules
- Activité A en % (mélanocytes murins [1]; J = 5, forskoline level about 0,1 >g/ml, relative to β-MSH 10⁻⁸ mole = 100): 151%

Molecule: CC(C)Cn1c(=O)n(C)c(=O)c2[nH]cnc21 [IBMX, 3-isobutyl-1-méthylxanthine]
- Mélanine >g pour 10⁶ mélanocytes (mélanocytes murins [1]; J = 4): 64 +/-0 >g pour 10⁶ mélanocytes
- A (mélanocytes murins [1]; J = 4): + 39
- Mélanine >g pour 10⁶ mélanocytes (mélanocytes murins [1]; J = 5): 103 +/-2 >g pour 10⁶ mélanocytes
- A (mélanocytes murins [1]; J = 5): + 35

Molecule: β-MSH
- Activité A en % (mélanocytes murins [2]; 2.10⁻⁸M): 100%
- Mélanine formée en >g pour 10⁶ cellules (mélanocytes murins [2]; 2.10⁻⁸M, Table II positive control): 179 ± 4 >g pour 10⁶ cellules
- Mélanine >g pour 10⁶ mélanocytes (mélanocytes murins [2]; J = 4): 119 +/-7 >g pour 10⁶ mélanocytes
- A (mélanocytes murins [2]; J = 4): + 100
- Activité A en % (mélanocytes murins [2]; J = 5, 10⁻⁸ mole de β-MSH): 100%
- Mélanine formée en >g pour 10⁶ cellules (mélanocytes murins [2]; J = 5, positive control 10⁻⁸ mole de β-MSH): 70 >g pour 10⁶ cellules
- Mélanine >g pour 10⁶ mélanocytes (mélanocytes murins [2]; J = 5): 200 +/-2 >g pour 10⁶ mélanocytes
- A (mélanocytes murins [2]; J = 5): + 100
